# Assay results from patent US20100267712A1, “ISOINDOLINE COMPOUNDS FOR THE TREATMENT OF SPINAL MUSCULAR ATROPHY AND OTHER USES” (The United States of America, as represented by the …, priority 2007, published 2010).
# Tested on: SMN2-linked luciferase-reporter gene construct
# Experiment: SMN Splice Reporter Assay (SMN2-linked luciferase reporter)
# Format: cell-based
# Conditions: cervical carcinoma cell lines, SMN2 splice luciferase reporter
# Text: As previously discussed, SMN1 is the gene deleted in SMA patients; the SMN2 gene remains intact in both SMA and normal patients. Therefore, SMN2 provides a potential means of increasing SMN production in SMA patients and is, thus, a target for developing SMA treatments. SMN2 is identical to SMN1 with the exception of a single base pair change that results in reduced expression of the gene. The reduction is based on the creation of an alternatively spliced RNA that produces an unstable protein carrying a deletion of exon 7. Both full length SMN and exon 7 deleted SMN are produced by the SMN2 gene via alternative RNA splicing, but the major product is the unstable deleted form.
# Cervical carcinoma cell lines were transformed with a SMN2-linked luciferase-reporter gene construct. The reporter is designed to detect shifts in the alternative splicing of SMN2 sequences. In particular, the reporter is constructed as a fusion of the alternatively spliced sequences of the SMN2 gene and the luciferase gene. Luciferase sequences are in the correct translational reading frame only when the SMN2 sequences are spliced according to the normal SMN1 mechanism (e.g., splicing to include exon 7), which allows for translation of the stable SMN protein. Compounds were tested in the assay by administering the compound to the cell line and detecting an increase in the luciferase activity. The assay is described in greater detail in Zhang et al., Gene Ther., 8: 1532-8 (2001). Compounds were administered as described in Lunn et al, Chem. & Biol, 11: 1489-1493 (2004).
# The results are reported as a fold-increase over a baseline reading of transformed cells without any test compound. The EC50 value also is reported in Table 1 for some exemplary compounds of the invention.
row,SMILES,EC50
1,COc1ccc2c(c1)C(=O)N(c1ccc3[nH]c(=O)[nH]c3c1)C2 [Example 120433],977 nM
2,Cn1ccc2ccc(N3Cc4cccc([N+](=O)[O-])c4C3=O)cc21 [Example 120282],737 nM
3,COc1ccc2c(c1)CN(c1ccc3c(ccn3C)c1)C2=O [Example 120782],184 nM
4,CCCn1ccc2ccc(N3Cc4ccc(OC)cc4C3=O)cc21 [Example 119868],2280 nM
5,O=C1c2ccccc2CN1c1ccc2c(c1)OC(F)(F)O2 [Example 116485],2240 nM
6,CC(C)(C)OC(=O)Cc1ccc(N2Cc3ccccc3C2=O)nc1 [Example 112719],6580 nM
7,COc1ccc2c(c1)C(=O)N(c1ccc(Br)cn1)C2 [Example 118737],415 nM
8,Cn1ccc2ccc(N3Cc4ccccc4C3=O)cc21 [Example 120435],640 nM
9,O=C1c2ccccc2CN1c1ccc(Br)nc1 [Example 112649],18200 nM
10,Cc1cccc2c1C(=O)N(c1ccc3ccn(C)c3c1)C2 [Example 120279],242 nM
11,COc1ccc2c(c1)C(=O)N(c1ccc3c(c1)ncn3C)C2 [Example 120291],111 nM
12,COc1ccc2c(c1)C(=O)N(c1ccc3c(ccn3C)n1)C2 [Example 121263],161 nM
13,COCn1ccc2ccc(N3Cc4ccc(Br)cc4C3=O)cc21 [Example 120430],306 nM
14,Cn1ccc2cc(N3Cc4cccc(N)c4C3=O)ccc21 [Example 120427],294 nM
15,COc1ccc2c(c1)C(=O)N(c1ccc3c(c1)c(C)c(C)n3C)C2 [Example 120597],777 nM
16,COc1ccc2c(c1)C(=O)N(c1ccc3c(c1)OCC(=O)N3)C2 [Example 119656],78 nM
17,COc1ccc2c(c1)CN(c1ccc3ncccc3c1)C2=O [Example 120951],135 nM
18,COc1ccc2c(c1)C(=O)N(c1ccc3c(ccn3C(C)=O)c1)C2 [Example 121076],49 nM
19,COCn1ccc2ccc(N3Cc4ccc(OC)cc4C3=O)cc21 [Example 120431],120 nM
20,COc1ccc2c(c1)C(=O)N(c1ccc3c(c1)CCC3)C2 [Example 116241],98 nM
21,Cn1ccc2cc(N3Cc4ccc(-c5ccccc5)cc4C3=O)ccc21 [Example 120288],408 nM
22,CC(=O)Nc1cccc2c1C(=O)N(c1ccc3ccn(C)c3c1)C2 [Example 121082],825 nM

# The next lines start with the values.
row,EC50,SMILES
1,92 nM,Cn1ccc2cc(N3Cc4ccc(OC(F)(F)C(F)Cl)cc4C3=O)ccc21 (stereo not drawn) [Example 122180]
2,145 nM,CCCOc1ccc2c(c1)C(=O)N(c1ccc3c(c1)cc(C)n3C)C2 [Example 123715]
3,302 nM,Cc1cc2cc(N3Cc4ccc(O)cc4C3=O)ccc2n1C [Example 123010]
4,560 nM,CCc1cc2cc(N3Cc4ccc(OC)cc4C3=O)ccc2n1C [Example 124327]
5,119 nM,COc1ccc2c(c1)C(=O)N(c1ccc3nc(Cl)ccc3c1)C2 [Example 123206]
6,540 nM,Cn1ccc2cc(N3Cc4ccc(OCC(F)(F)F)cc4C3=O)ccc21 [Example 122043]
7,76 nM,C/C=C(/C)c1ccc2c(c1)C(=O)N(c1ccc3c(ccn3C)c1)C2 [Example 122041]
8,197 nM,CCc1ccc2c(c1)C(=O)N(c1ccc3c(c1)cc(C)n3C)C2 [Example 123016]
9,86 nM,O=C1c2cc(O)ccc2CN1c1ccc2sccc2c1 [Example 122430]
10,101 nM,COc1ccc2c(c1)C(=O)N(c1cc3ccn(C)c3cn1)C2 [Example 121792]
11,36 nM,CC(C)Cc1ccc2c(c1)C(=O)N(c1ccc3c(ccn3C)c1)C2 [Example 121927]
12,222 nM,COc1ccc2c(c1)C(=O)N(c1ccc3[nH]ccc3n1)C2 [Example 121515]
13,409 nM,COc1ccc2c(c1)C(=O)N(c1ccc3c(c1)c(C)cn3C)C2 [Example 122184]
14,85 nM,CCc1ccc2c(c1)C(=O)N(c1ccc3c(ccn3C)c1)C2 [Example 121793]
15,78 nM,COc1ccc2c(c1)C(=O)N(c1ccc3nccc(C)c3c1)C2 [Example 123589]
16,5970 nM,COc1ccc2c(c1)C(=O)N(c1ccc3c(N(C)C)ccnc3c1)C2 [Example 124037]
17,520 nM,Cn1ccc2ccc(N3Cc4ccc(O)cc4C3=O)cc21 [Example 124039]
18,27 nM,CCOc1ccc2c(c1)C(=O)N(c1ccc3sccc3c1)C2 [Example 122554]
19,63 nM,CC(=O)Nc1ccc2c(c1)C(=O)N(c1ccc3c(ccn3C(C)C)c1)C2 [Example 126111]
20,272 nM,COc1ccc2c(c1)C(=O)N(c1ccc3scc(C)c3c1)C2 [Example 123012]
21,80 nM,CCCOc1ccc2c(c1)C(=O)N(c1ccc3c(ccn3C)c1)C2 [Example 121785]

# Same assay, conditions: fold-increase of luciferase over baseline reading of transformed cells without any test compound
row,SMILES,Fold Increase
1,Cn1ccc2cc(N3Cc4ccc(OC(F)(F)C(F)Cl)cc4C3=O)ccc21 (stereo not drawn) [Example 122180],1.64
2,CCCOc1ccc2c(c1)C(=O)N(c1ccc3c(c1)cc(C)n3C)C2 [Example 123715],1.216
3,Cc1cc2cc(N3Cc4ccc(O)cc4C3=O)ccc2n1C [Example 123010],1.336
4,COc1ccc2c(c1)C(=O)N(c1ccc3c(ccn3C(F)F)c1)C2 [Example 121788],1.19
5,CN(C)c1ccc2c(c1)C(=O)N(c1ccc3c(c1)CCN3C)C2 [Example 119660],1.074
6,CCc1cc2cc(N3Cc4ccc(OC)cc4C3=O)ccc2n1C [Example 124327],1.361
7,COc1ccc2c(c1)C(=O)N(c1ccc3nc(Cl)ccc3c1)C2 [Example 123206],1.531
8,COc1ccc2c(c1)C(=O)N(c1ccc3[nH]c(=O)[nH]c3c1)C2 [Example 120433],1.296
9,Cn1ccc2ccc(N3Cc4cccc([N+](=O)[O-])c4C3=O)cc21 [Example 120282],1.291
10,COc1ccc2c(c1)CN(c1ccc3c(ccn3C)c1)C2=O [Example 120782],1.49
11,COc1ccc2c(c1)C(=O)N(c1ccc3c(N(C)C)ccnc3c1)C2 [Example 123713],1.072
12,CC(C)Oc1ccc2c(c1)C(=O)N(c1ccc3c(ccn3C)c1)C2 [Example 121923],1.194
13,CCCn1ccc2ccc(N3Cc4ccc(OC)cc4C3=O)cc21 [Example 119868],1.582
14,Cn1ccc2cc(N3Cc4ccc(OCC(F)(F)F)cc4C3=O)ccc21 [Example 122043],1.341
15,C/C=C(/C)c1ccc2c(c1)C(=O)N(c1ccc3c(ccn3C)c1)C2 [Example 122041],1.606
16,O=C1c2ccccc2CN1c1ccc2c(c1)OC(F)(F)O2 [Example 116485],1.202
17,CC(C)(C)OC(=O)Cc1ccc(N2Cc3ccccc3C2=O)nc1 [Example 112719],1.324
18,Cn1ccc2cc(N3Cc4ccc(-c5cncnc5)cc4C3=O)ccc21 [Example 122181],1.169
19,CCc1ccc2c(c1)C(=O)N(c1ccc3c(c1)cc(C)n3C)C2 [Example 123016],1.481
20,O=C1c2cc(O)ccc2CN1c1ccc2sccc2c1 [Example 122430],1.769
21,COc1ccc2c(c1)C(=O)N(c1cc3ccn(C)c3cn1)C2 [Example 121792],1.384
22,COc1ccc2c(c1)C(=O)N(c1ccc(C)nc1)C2 [Example 118735],1.149
23,COc1ccc2c(c1)C(=O)N(c1ccc3c(c1)cc(-c1ccccc1)n3C)C2 [Example 124979],1.378

row,SMILES,Fold Increase
1,COCc1cc2cc(N3Cc4ccc(OC)cc4C3=O)ccc2n1C [Example 124328],1.305
2,COc1ccc2c(c1)C(=O)N(c1ccc(Br)cn1)C2 [Example 118737],1.358
3,Cn1ccc2ccc(N3Cc4ccccc4C3=O)cc21 [Example 120435],1.585
4,O=C1c2ccccc2CN1c1ccc(Br)nc1 [Example 112649],1.373
5,Cc1cccc2c1C(=O)N(c1ccc3ccn(C)c3c1)C2 [Example 120279],1.784
6,O=C1c2cc(Br)ccc2CN1c1ccc2ccsc2c1 [Example 122557],1.383
7,CC(C)Cc1ccc2c(c1)C(=O)N(c1ccc3c(ccn3C)c1)C2 [Example 121927],1.323
8,COc1ccc2c(c1)C(=O)N(c1ccc3c(c1)ncn3C)C2 [Example 120291],1.362
9,COc1ccc2c(c1)C(=O)N(c1ccc3c(ccn3C)n1)C2 [Example 121263],1.39
10,COc1ccc2c(c1)C(=O)N(c1cc3cc[nH]c3cn1)C2 [Example 121514],1.172
11,COCn1ccc2ccc(N3Cc4ccc(Br)cc4C3=O)cc21 [Example 120430],1.374
12,CCCc1ccc2c(c1)C(=O)N(c1ccc3c(c1)cc(C)n3C(C)C)C2 [Example 125601],1.027
13,COc1ccc2c(c1)C(=O)N(c1ccc3[nH]ccc3n1)C2 [Example 121515],1.24
14,COc1ccc2c(c1)C(=O)N(c1ccc3c(c1)c(C)cn3C)C2 [Example 122184],1.639
15,Cn1ccc2cc(N3Cc4cccc(N)c4C3=O)ccc21 [Example 120427],1.606
16,Cc1cc2ccc(N3Cc4ccc(-c5ccccc5)cc4C3=O)cc2n1C [Example 124978],1.115
17,CC(=O)Nc1ccc2c(c1)CN(c1ccc3c(ccn3C)c1)C2=O [Example 121508],1.201
18,CCOc1ccc2c(c1)C(=O)N(c1ccc3cc(C)n(C)c3c1)C2 [Example 124983],1.305
19,COc1ccc2c(c1)C(=O)N(c1ccc3c(c1)c(C)c(C)n3C)C2 [Example 120597],1.434
20,COc1ccc2c(c1)C(=O)N(c1ccc3c(c1)OCC(=O)N3)C2 [Example 119656],1.375
21,COc1ccc2c(c1)CN(c1ccc3ncccc3c1)C2=O [Example 120951],1.769
22,CCc1ccc2c(c1)C(=O)N(c1ccc3c(ccn3C)c1)C2 [Example 121793],1.529
23,Cc1cc2ccc(N3Cc4ccc(Cl)cc4C3=O)cc2n1C [Example 124861],1.268

row,SMILES,Fold Increase
1,COc1ccc2c(c1)C(=O)N(c1ccc3ccc(O)nc3c1)C2 [Example 124170],1.102
2,Cc1cc2cc(N3Cc4ccc(OC5CCCC5)cc4C3=O)ccc2n1C [Example 123938],1.2
3,Cc1cc2cc(N3Cc4ccc(N5CCCC5)cc4C3=O)ccc2n1C(C)C [Example 125603],0.995
4,CC(C)n1ccc2cc(N3Cc4ccc(N5CCCC5)cc4C3=O)ccc21 [Example 125384],1.091
5,COc1ccc2c(c1)C(=O)N(c1ccc3c(ccn3C(C)=O)c1)C2 [Example 121076],1.295
6,COCn1ccc2ccc(N3Cc4ccc(OC)cc4C3=O)cc21 [Example 120431],1.311
7,COc1ccc2c(c1)C(=O)N(c1ccc3ccn(C(C)C)c3c1)C2 [Example 120283],1.273
8,COc1ccc2c(c1)C(=O)N(c1ccc3nccc(C)c3c1)C2 [Example 123589],1.541
9,COc1ccc2c(c1)C(=O)N(c1ccc3c(N(C)C)ccnc3c1)C2 [Example 124037],1.377
10,COc1ccc2c(c1)C(=O)N(c1ccc3c(c1)CCC3)C2 [Example 116241],1.512
11,Cn1ccc2ccc(N3Cc4ccc(O)cc4C3=O)cc21 [Example 124039],1.893
12,Cc1cc2cc(N3Cc4ccc(S(C)(=O)=O)cc4C3=O)ccc2n1C [Example 124166],1.227
13,COc1ccc2c(c1)C(=O)N(c1ccc3c(c1)CCN3C)C2 [Example 122314],1.026
14,CCOc1ccc2c(c1)C(=O)N(c1ccc3sccc3c1)C2 [Example 122554],1.475
15,CC(=O)Nc1ccc2c(c1)C(=O)N(c1ccc3c(ccn3C(C)C)c1)C2 [Example 126111],1.34
16,Cn1ccc2cc(N3Cc4ccc(-c5ccccc5)cc4C3=O)ccc21 [Example 120288],1.364
17,COc1ccc2c(c1)C(=O)N(c1ccc3scc(C)c3c1)C2 [Example 123012],1.773
18,CC(=O)Nc1cccc2c1C(=O)N(c1ccc3ccn(C)c3c1)C2 [Example 121082],1.496
19,COc1ccc2c(c1)C(=O)N(c1cnc3[nH]ccc3c1)C2 [Example 121078],1.246
20,Cc1cc2cc(N3Cc4ccc(Br)cc4C3=O)ccc2n1C(C)C [Example 125385],1.454
21,CCCOc1ccc2c(c1)C(=O)N(c1ccc3c(ccn3C)c1)C2 [Example 121785],1.29
22,O=C1c2cc(OC(F)F)ccc2CN1c1ccc2c(ccn2C(F)F)c1 [Example 121787],1.221
